These results are taken from US20090030005A1, “Combinations for the treatment of cancer” (AMGEN INC., priority 2007, published 2009).

Common to all, as to type: cell-based
One assay deals with MiaPaCa-2 cells. As to the kind of experiment: 14C-thymidine incorporation assay, IC20 determination (MTAP status not specified). Particulars: Homo sapiens, MIA PaCa-2; same thymidine incorporation assay as Example 2. As for the experimental part: (§1) CDK4 inhibitor in MTAP^+/+ and MTAP^−/− MiaPaCa-2 cells. The IC50 of a CDK4 inhibitor was determined in the MTAP+/+ and MTAP−/− MiaPaCa-2 cells using a thymidine incorporation assay. MTAP^−/− and MTAP^+/+ MiaPaCa-2 cells from Example 1 were seeded at 2×10^4 cells/ml in 100 μl per well in Costar T plates (Amersham Biosciences). Twenty-four hours later a dose response of a CDK4 inhibitor PD-0332991 (1 nM; 3 nM, 10 nM, 30 nM, 100 nM, 300 nM, 1 μM, 3 μM, 10 μM and 30 μM concentrations) was added to triplicate wells. ^14C-Thymidine (0.1 μCi, Amersham) was added to each well for a final total volume of 200 μL. Plates were read on a beta counter for incorporation of the radioactive thymidine as a measure of cell viability at time 0, 24, 48, 72 and 96 hours. Data was calculated as the mean and standard deviation of triplicate samples divided by the mean and standard deviation of untreated control samples to yield percent of control.
Alanosine or MTX were then dosed at the IC20 concentrations together with a dose response of the CDK4 inhibitor with or without adenine or MTA.
A general note: Incorporation of labelled thymidine or its analogues reports DNA synthesis.

The subject of a further assay is MTAP-/- MiaPaCa-2 cells. As to the kind of experiment: 14C-thymidine incorporation assay (cell viability) in MTAP-/- MiaPaCa-2 cells. Particulars: for IC50: Homo sapiens. As for the experimental part:
(§2) Generation of MTAP^+/+ and MTAP^−/− MiaPaCa-2 cells. MiaPaCa-2 pancreatic cells, which harbor a homozygous deletion in MTAP (MTAP^−/−) were obtained from ATCC. Cells were infected with either a control virus (pLPC) or a virus expressing MTAP (pLPC-MTAP). Infected cells were selected by puromycin resistance and maintained in 0.5 μg/ml puromycin. MTAP expression in MTAP^+/+ MiaPaCa-2 cells was confirmed by QPCR.
as §1
(§3) Combination of de novo purine biosynthesis inhibitor and CDK4 inhibitor in MTAP^−/− cells with adenine. MTAP^−/− MiaPaCa-2 cells from Example 1 were seeded at 2×10^4 cells/ml in 100 μl per well in Costar T plates (Amersham Biosciences). Twenty-four hours later a dose response of a CDK4 inhibitor PD-0332991 (1 nM; 3 nM, 10 nM, 30 nM, 100 nM, 300 nM, 1 μM, 3 μM, 10 μM and 30 μM concentrations) was added to triplicate wells with or without 1.7 μM (IC20) of alanosine. Some cells were also treated with 20 μM adenine (Sigma) as rescue substrate. ^14C-Thymidine (0.1 μCi, Amersham) was added to each well for a final total volume of 200 μL. Plates were read for incorporation of the radioactive thymidine as a measure of cell viability on a beta counter at time 0, 24, 48, 72 and 96 hours. Data was calculated as the mean and standard deviation of triplicate samples divided by the mean and standard deviation of untreated control samples to yield percent of control.
as §3, with “MTA.” for “adenine.”, “MTA” for “adenine”
(§4) Combination of MTX and CDK4 inhibitor in MTAP^−/− cells. MTAP^−/− MiaPaCa-2 cells from Example 1 were seeded at 2×10^4 cells/ml in 100 μl per well in Costar T plates (Amersham Biosciences). Twenty-four hours later a dose response of a CDK4 inhibitor PD-0332991 (1 nM; 3 nM, 10 nM, 30 nM, 100 nM, 300 nM, 1 μM, 3 μM, 10 μM and 30 μM concentrations) and thymidine (20 μM, Sigma) was added to triplicate wells with or without 20 nM (IC20) of MTX. ^14C-Thymidine (0.1 μCi, Amersham) was added to each well for a final total volume of 200 μL. Plates were read for incorporation of the radioactive thymidine as a measure of cell viability on a beta counter at time 0, 24, 48, 72 and 96 hours.

The subject of a further assay is MTAP+/+ MiaPaCa-2 cells. Nature of the assay: 14C-thymidine incorporation assay (cell viability) in MTAP+/+ MiaPaCa-2 cells. Particulars: for IC50: Homo sapiens. As for the experimental part:
as §2, §1
as §3, with “MTAP^+/+” for “MTAP^−/−”
Combination of de novo purine biosynthesis inhibitor and CDK4 inhibitor in MTAP^+/+ cells with MTA. MTAP^+/+ MiaPaCa-2 cells from Example 1 were seeded at 2×10^4 cells/ml in 100 μl per well in Costar T plates (Amersham Biosciences).
as §3, with “Twenty-four” for “Combination of de novo purine biosynthesis inhibitor and CDK4 inhibitor in MTAP^−/− cells with adenine. MTAP^−/− MiaPaCa-2 cells from Example 1 were seeded at 2×10^4 cells/ml in 100 μl per well in Costar T plates (Amersham Biosciences). Twenty-four”, “MTA” for “adenine”
as §4, with “MTAP^+/+” for “MTAP^−/−”

Where two headings read alike, the source gives them in different places.

For orientation: IC20 means the concentration at which the effect reaches the 20% level. Read a low IC20 as greater potency. In the assay with MiaPaCa-2 cells, `N[C@@H](CN(O)N=O)C(=O)O` [alanosine] gave an IC20 of 1700 nM.

One may read the IC50 as the concentration that inhibits the measured activity by half. Consider `CC(=O)c1c(C)c2cnc(Nc3ccc(N4CCNCC4)cn3)nc2n(C2CCCC2)c1=O` [PD-0332991], for which the IC50 in the assay on MTAP-/- MiaPaCa-2 cells (MIA PaCa-2, Example 2, first experiment, CDK4 inhibitor alone, MTAP-/- cells, FIG. 1, read-out: IC50 of the CDK4 inhibitor) is 1560 nM; with MTAP-/- MiaPaCa-2 cells (MIA PaCa-2, MTAP-/- cells, 1.7 μM alanosine and 20 μM MTA, read-out: IC50 of the CDK4 inhibitor together with the alanosine and with MTA), 643 nM; in the assay on MTAP-/- MiaPaCa-2 cells (MIA PaCa-2, MTAP-/- cells, 1.7 μM alanosine and 20 μM adenine, read-out: IC50 of the CDK4 inhibitor together with the alanosine and with adenine), 2460 nM; with MTAP-/- MiaPaCa-2 cells (MIA PaCa-2, MTAP-/- cells, 20 μM MTA, read-out: IC50 of the CDK4 inhibitor together with the MTA), 1710 nM; in the assay with MTAP-/- MiaPaCa-2 cells (MIA PaCa-2, MTAP-/- cells, 20 μM adenine, read-out: IC50 of the CDK4 inhibitor together with the adenine), 950 nM; with MTAP-/- MiaPaCa-2 cells (MIA PaCa-2, MTAP-/- cells, Examples 4 and 6, FIG. 3, 5, read-out: IC50 of the CDK4 inhibitor alone), 1280 nM. In addition, the IC50 turned out to be 287 nM in the assay with MTAP-/- MiaPaCa-2 cells (MIA PaCa-2, MTAP-/- cells, with 1.7 μM (IC20) alanosine, read-out: IC50 of the CDK4 inhibitor together with the alanosine); 800 nM in the assay on MTAP-/- MiaPaCa-2 cells (MIA PaCa-2, MTAP-/- cells, with thymidine 20 μM and 20 nM (IC20) MTX, read-out: IC50 of the CDK4 inhibitor together with MTX); 1300 nM in the assay with MTAP-/- MiaPaCa-2 cells (MIA PaCa-2, MTAP-/- cells, with thymidine 20 μM, Example 8, FIG. 7, read-out: IC50 of the CDK4 inhibitor alone); 1.82 µM with MTAP+/+ MiaPaCa-2 cells (MIA PaCa-2, Example 2, first experiment, CDK4 inhibitor alone, MTAP+/+ cells, FIG. 1, read-out: IC50 of the CDK4 inhibitor); 6.1 µM in the assay on MTAP+/+ MiaPaCa-2 cells (MIA PaCa-2, MTAP+/+ cells, 1.7 μM alanosine and 20 μM MTA, read-out: IC50 of the CDK4 inhibitor together with the alanosine and with MTA); 5.56 µM with MTAP+/+ MiaPaCa-2 cells (MIA PaCa-2, MTAP+/+ cells, 1.7 μM alanosine and 20 μM adenine, read-out: IC50 of the CDK4 inhibitor together with the alanosine and with adenine). Further, the IC50 with MTAP+/+ MiaPaCa-2 cells (MIA PaCa-2, MTAP+/+ cells, 20 μM MTA, read-out: IC50 of the CDK4 inhibitor together with the MTA) was determined as 8.25 µM; in the assay with MTAP+/+ MiaPaCa-2 cells (MIA PaCa-2, MTAP+/+ cells, 20 μM adenine, read-out: IC50 of the CDK4 inhibitor together with the adenine), 7.36 µM; in the assay with MTAP+/+ MiaPaCa-2 cells (MIA PaCa-2, MTAP+/+ cells, Examples 3 and 5, FIG. 2, 4, read-out: IC50 of the CDK4 inhibitor alone), 4.33 µM; with MTAP+/+ MiaPaCa-2 cells (MIA PaCa-2, MTAP+/+ cells, with 1.7 μM (IC20) alanosine, read-out: IC50 of the CDK4 inhibitor together with the alanosine), 0.996 µM; in the assay on MTAP+/+ MiaPaCa-2 cells (MIA PaCa-2, MTAP+/+ cells, with thymidine 20 μM and 20 nM (IC20) MTX, read-out: IC50 of the CDK4 inhibitor together with MTX), 3.5 µM; with MTAP+/+ MiaPaCa-2 cells (MIA PaCa-2, MTAP+/+ cells, with thymidine 20 μM, Example 7, FIG. 6, read-out: IC50 of the CDK4 inhibitor alone), 3.2 µM.

Take `Nc1ncnc2nc[nH]c12` [adenine]: the “Rescue of the alanosine shift of the IC50 of the CDK4 inhibitor” value in the assay on MTAP-/- MiaPaCa-2 cells (MTAP-/- cells, 20 μM rescue substrate) is reported as “rescued”; with MTAP+/+ MiaPaCa-2 cells (MTAP+/+ cells, 20 μM rescue substrate) it was “rescued”.

Compound `CN(Cc1cnc2nc(N)nc(N)c2n1)c1ccc(C(=O)N[C@@H](CCC(=O)O)C(=O)O)cc1` [MTX, Methotrexate] came in with an IC20 in the assay with MiaPaCa-2 cells of 2 nM.
